PubChem BioAssay AID1919008 (Molecular Pharmacology Branch, DTP, NCI, 2023)

Tested on: DMS-114 complex spheroids with HUVEC/MSC, growth % test/control
Assay: Anticancer human tumor DMS-114 cell line growth inhibition [AhR];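 note: spheroids exposed to agents for 7 days before readout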;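 for viability, T/C: 100% = DMSO vehicle control wells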
Details: for IC50: curve of first compound; for viability, T/C: stronger effect = lower value
How it was run: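 Complex tumor spheroids co-cultured with HUVEC and human MSC stroma; AhR antagonists tested in combination with standard-of-care and investigational agents. Top concentration at or near clinical Cmax (else 10 microM), half-log dilutions; growth expressed as percent test/control.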

[1] = second compound 0.1 µM, first compound 0.0316 µM
[2] = second compound 0.1 µM, first compound 0.1 µM
[3] = second compound 0.1 µM, first compound 0.316 µM
[4] = second compound 0.1 µM, first compound 1 µM
[5] = second compound 0.1 µM, first compound 3.16 µM
[6] = second compound 0.1 µM, first compound 10 µM
[7] = second compound 0.316 µM, first compound 0.0316 µM
[8] = second compound 0.316 µM, first compound 0.1 µM
[9] = second compound 0.316 µM, first compound 0.316 µM
[10] = second compound 0.316 µM, first compound 1 µM
[11] = second compound 0.316 µM, first compound 3.16 µM
[12] = second compound 0.316 µM, first compound 10 µM
[13] = second compound 1 µM, first compound 0.0316 µM
[14] = second compound 1 µM, first compound 0.1 µM
[15] = second compound 1 µM, first compound 0.316 µM
[16] = second compound 1 µM, first compound 1 µM
[17] = second compound 1 µM, first compound 3.16 µM
[18] = second compound 1 µM, first compound 10 µM
[19] = second compound 3.16 µM, first compound 0.0316 µM
[20] = second compound 3.16 µM, first compound 0.1 µM
[21] = second compound 3.16 µM, first compound 0.316 µM
[22] = second compound 3.16 µM, first compound 1 µM
[23] = second compound 3.16 µM, first compound 3.16 µM
[24] = second compound 3.16 µM, first compound 10 µM
[25] = second compound 10 µM, first compound 0.0316 µM
[26] = second compound 10 µM, first compound 0.1 µM
[27] = second compound 10 µM, first compound 0.316 µM
[28] = second compound 10 µM, first compound 1 µM
[29] = second compound 10 µM, first compound 3.16 µM
[30] = second compound 10 µM, first compound 10 µM
[31] = second compound 0.1 µM, first compound 0.00949 µM
[32] = second compound 0.1 µM, first compound 0.03 µM
[33] = second compound 0.1 µM, first compound 0.0949 µM
[34] = second compound 0.1 µM, first compound 0.3 µM
[35] = second compound 0.1 µM, first compound 0.949 µM
[36] = second compound 0.1 µM, first compound 3 µM
[37] = second compound 0.316 µM, first compound 0.00949 µM
[38] = second compound 0.316 µM, first compound 0.03 µM
[39] = second compound 0.316 µM, first compound 0.0949 µM
[40] = second compound 0.316 µM, first compound 0.3 µM
[41] = second compound 0.316 µM, first compound 0.949 µM
[42] = second compound 0.316 µM, first compound 3 µM
[43] = second compound 1 µM, first compound 0.00949 µM
[44] = second compound 1 µM, first compound 0.03 µM
[45] = second compound 1 µM, first compound 0.0949 µM
[46] = second compound 1 µM, first compound 0.3 µM
[47] = second compound 1 µM, first compound 0.949 µM
[48] = second compound 1 µM, first compound 3 µM
[49] = second compound 3.16 µM, first compound 0.00949 µM
[50] = second compound 3.16 µM, first compound 0.03 µM
[51] = second compound 3.16 µM, first compound 0.0949 µM
[52] = second compound 3.16 µM, first compound 0.3 µM
[53] = second compound 3.16 µM, first compound 0.949 µM
[54] = second compound 3.16 µM, first compound 3 µM
[55] = second compound 10 µM, first compound 0.00949 µM
[56] = second compound 10 µM, first compound 0.03 µM
[57] = second compound 10 µM, first compound 0.0949 µM
[58] = second compound 10 µM, first compound 0.3 µM
[59] = second compound 10 µM, first compound 0.949 µM
[60] = second compound 10 µM, first compound 3 µM

Structure (SMILES): CC1(C)CCC(CN2CCN(c3ccc(C(=O)NS(=O)(=O)c4ccc(NCC5CCOCC5)c([N+](=O)[O-])c4)c(Oc4cnc5[nH]ccc5c4)c3)CC2)=C(c2ccc(Cl)cc2)C1 + Cc1ccccc1N=Nc1ccc(NC(=O)c2ccnn2C)c(C)c1
- IC50 (second compound 0.1 µM): > 10000 nM
- IC50 (second compound 0.316 µM): > 10000 nM
- IC50 (second compound 1 µM): > 10000 nM
- IC50 (second compound 3.16 µM): > 10000 nM
- IC50 (second compound 10 µM): > 10000 nM
- viability, T/C [1]: 103%
- viability, T/C [2]: 100%
- viability, T/C [3]: 112%
- viability, T/C [4]: 114%
- viability, T/C [5]: 120%
- viability, T/C [6]: 107%
- viability, T/C [7]: 120%
- viability, T/C [8]: 112%
- viability, T/C [9]: 105%
- viability, T/C [10]: 104%
- viability, T/C [11]: 117%
- viability, T/C [12]: 118%
- viability, T/C [13]: 105%
- viability, T/C [14]: 107%
- viability, T/C [15]: 113%
- viability, T/C [16]: 111%
- viability, T/C [17]: 117%
- viability, T/C [18]: 102%
- viability, T/C [19]: 99.8%
- viability, T/C [20]: 104%
- viability, T/C [21]: 103%
- viability, T/C [22]: 110%
- viability, T/C [23]: 114%
- viability, T/C [24]: 105%
- viability, T/C [25]: 104%
- viability, T/C [26]: 102%
- viability, T/C [27]: 101%
- viability, T/C [28]: 104%
- viability, T/C [29]: 101%
- viability, T/C [30]: 87.1%

Structure (SMILES): CC1COCCN1c1cc(C2(S(C)(=N)=O)CC2)nc(-c2ccnc3[nH]ccc23)n1 (stereo not given) + Cc1ccccc1N=Nc1ccc(NC(=O)c2ccnn2C)c(C)c1
- IC50 (second compound 0.1 µM): > 10000 nM
- IC50 (second compound 0.316 µM): > 10000 nM
- IC50 (second compound 1 µM): > 10000 nM
- IC50 (second compound 3.16 µM): > 10000 nM
- IC50 (second compound 10 µM): > 10000 nM
- viability, T/C [1]: 107%
- viability, T/C [2]: 100%
- viability, T/C [3]: 104%
- viability, T/C [4]: 109%
- viability, T/C [5]: 106%
- viability, T/C [6]: 77.6%
- viability, T/C [7]: 102%
- viability, T/C [8]: 98.1%
- viability, T/C [9]: 103%
- viability, T/C [10]: 103%
- viability, T/C [11]: 92.5%
- viability, T/C [12]: 74.1%
- viability, T/C [13]: 95.5%
- viability, T/C [14]: 94.5%
- viability, T/C [15]: 90.6%
- viability, T/C [16]: 102%
- viability, T/C [17]: 102%
- viability, T/C [18]: 71.5%
- viability, T/C [19]: 93.3%
- viability, T/C [20]: 90.5%
- viability, T/C [21]: 99.3%
- viability, T/C [22]: 95.4%
- viability, T/C [23]: 94.2%
- viability, T/C [24]: 68%
- viability, T/C [25]: 95.7%
- viability, T/C [26]: 90.7%
- viability, T/C [27]: 96.2%
- viability, T/C [28]: 89.6%
- viability, T/C [29]: 86.1%
- viability, T/C [30]: 63.1%

Structure (SMILES): CCN(c1cc(-c2ccc(CN3CCOCC3)cc2)cc(C(=O)NCc2c(C)cc(C)[nH]c2=O)c1C)C1CCOCC1 + Cc1ccccc1N=Nc1ccc(NC(=O)c2ccnn2C)c(C)c1
- IC50 (second compound 0.1 µM): > 3000 nM
- IC50 (second compound 0.316 µM): > 3000 nM
- IC50 (second compound 1 µM): > 3000 nM
- IC50 (second compound 3.16 µM): > 3000 nM
- IC50 (second compound 10 µM): > 3000 nM
- viability, T/C [31]: 97.5%
- viability, T/C [32]: 105%
- viability, T/C [33]: 111%
- viability, T/C [34]: 114%
- viability, T/C [35]: 101%
- viability, T/C [36]: 102%
- viability, T/C [37]: 105%
- viability, T/C [38]: 101%
- viability, T/C [39]: 104%
- viability, T/C [40]: 113%
- viability, T/C [41]: 108%
- viability, T/C [42]: 100%
- viability, T/C [43]: 108%
- viability, T/C [44]: 101%
- viability, T/C [45]: 110%
- viability, T/C [46]: 110%
- viability, T/C [47]: 112%
- viability, T/C [48]: 98.8%
- viability, T/C [49]: 108%
- viability, T/C [50]: 104%
- viability, T/C [51]: 110%
- viability, T/C [52]: 102%
- viability, T/C [53]: 107%
- viability, T/C [54]: 105%
- viability, T/C [55]: 106%
- viability, T/C [56]: 104%
- viability, T/C [57]: 102%
- viability, T/C [58]: 108%
- viability, T/C [59]: 103%
- viability, T/C [60]: 102%

Structure (SMILES): Nc1ncn(C2CC(O)C(CO)S2)c(=O)n1 (stereo not given) + Cc1ccccc1N=Nc1ccc(NC(=O)c2ccnn2C)c(C)c1
- IC50 (second compound 0.1 µM): > 300 nM
- IC50 (second compound 0.316 µM): > 300 nM
- IC50 (second compound 1 µM): > 300 nM
- IC50 (second compound 3.16 µM): > 300 nM
- IC50 (second compound 10 µM): > 300 nM
- viability, T/C (second compound 0.1 µM, first compound 0.000949 µM): 94.1%
- viability, T/C (second compound 0.1 µM, first compound 0.003 µM): 96.7%
- viability, T/C [31]: 106%
- viability, T/C [32]: 101%
- viability, T/C [33]: 98.6%
- viability, T/C [34]: 88.6%
- viability, T/C (second compound 0.316 µM, first compound 0.000949 µM): 94.9%
- viability, T/C (second compound 0.316 µM, first compound 0.003 µM): 96.3%
- viability, T/C [37]: 103%
- viability, T/C [38]: 105%
- viability, T/C [39]: 111%
- viability, T/C [40]: 95.5%
- viability, T/C (second compound 1 µM, first compound 0.000949 µM): 101%
- viability, T/C (second compound 1 µM, first compound 0.003 µM): 102%
- viability, T/C [43]: 99.2%
- viability, T/C [44]: 105%
- viability, T/C [45]: 117%
- viability, T/C [46]: 98.9%
- viability, T/C (second compound 3.16 µM, first compound 0.000949 µM): 113%
- viability, T/C (second compound 3.16 µM, first compound 0.003 µM): 93.4%
- viability, T/C [49]: 96.9%
- viability, T/C [50]: 105%
- viability, T/C [51]: 91.7%
- viability, T/C [52]: 91.3%
- viability, T/C (second compound 10 µM, first compound 0.000949 µM): 99.4%
- viability, T/C (second compound 10 µM, first compound 0.003 µM): 97.3%
- viability, T/C [55]: 92.3%
- viability, T/C [56]: 94.3%
- viability, T/C [57]: 91.7%
- viability, T/C [58]: 74.7%

Structure (SMILES): O=C(C=Cn1cnc(-c2cc(C(F)(F)F)cc(C(F)(F)F)c2)n1)NNc1cnccn1 + Cc1ccccc1N=Nc1ccc(NC(=O)c2ccnn2C)c(C)c1
- IC50 (second compound 0.1 µM): 827 nM
- IC50 (second compound 0.316 µM): 806 nM
- IC50 (second compound 1 µM): 906 nM
- IC50 (second compound 3.16 µM): 877 nM
- IC50 (second compound 10 µM): 987 nM
- viability, T/C [31]: 111%
- viability, T/C [32]: 114%
- viability, T/C [33]: 124%
- viability, T/C [34]: 93.4%
- viability, T/C [35]: 45%
- viability, T/C [36]: 18.2%
- viability, T/C [37]: 95.8%
- viability, T/C [38]: 125%
- viability, T/C [39]: 127%
- viability, T/C [40]: 89.1%
- viability, T/C [41]: 45.2%
- viability, T/C [42]: 17.4%
- viability, T/C [43]: 100%
- viability, T/C [44]: 124%
- viability, T/C [45]: 144%
- viability, T/C [46]: 91.6%
- viability, T/C [47]: 51.8%
- viability, T/C [48]: 20.6%
- viability, T/C [49]: 99.7%
- viability, T/C [50]: 110%
- viability, T/C [51]: 124%
- viability, T/C [52]: 88%
- viability, T/C [53]: 48.9%
- viability, T/C [54]: 21.9%
- viability, T/C [55]: 98.5%
- viability, T/C [56]: 91.5%
- viability, T/C [57]: 95.5%
- viability, T/C [58]: 75.6%
- viability, T/C [59]: 51.5%
- viability, T/C [60]: 30.4%
